{"source": "patent US20110183848A1", "about": "“Piperazine Compounds With Herbicidal Effect” (BASF SE, priority 2008, published 2011)", "key": {"[1]": {"test_system": "SETFA", "experiment": "active compound combinations, pre-emergence greenhouse test (Colby synergy)", "assay_type": "in vivo, Setaria faberi", "excerpt": "(§1) The culture containers used were plastic flowerpots containing loamy sand with approximately 5.8% of humus as the substrate. The seeds of the test plants were sown separately for each species.\n(§2) For the pre-emergence treatment, the active compounds, which had been suspended or emulsified in water, were applied directly after sowing by means of finely distributing nozzles. The containers were irrigated gently to promote germination and growth and subsequently covered with transparent plastic hoods until the plants had rooted. This cover caused uniform germination of the test plants, unless this has been impaired by the active compounds.\n(§3) The respective stated components A and B were formulated as a 5% by weight strength or 10% by weight strength emulsion concentrate, or a commercial formulation of component B was used, and, with addition of the amount of solvent system, introduced into the spray liquor used for applying the active compound. In the examples, the solvent used was water.\n(§4) The test period extended over 20 or 21 days. During this time, the plants were tended, and their reactions to the treatments with the active compounds were monitored.\n(§5) In the examples below, using the method of S. R. Colby (1967) “Calculating synergistic and antagonistic responses of herbicide combinations”, Weeds 15, p. 22ff., the value E, which is expected when the activity of the individual active compounds is only additive, was calculated.\n(§6) If the value determined experimentally is higher than the value E calculated according to Colby, a synergistic effect is present.\n(§7) Here, a.s.=active substance, based on 100% active compound. In the use examples 15 and 16, the values E calculated according to Colby are stated in brackets) ( ).\n(§8) What was evaluated was the damage by the chemical compositions using a scale of from 0 to 100%, in comparison to the untreated control plants. 0 means no damage, and 100 means complete destruction of the plants."}, "[2]": {"test_system": "ALOMY", "experiment": "active compound combinations, pre-emergence greenhouse test (Colby synergy)", "assay_type": "in vivo, Alopecurus myosuroides", "excerpt": "as §1, §2, §3, §4, §5, §6, §7, §8"}, "[3]": {"test_system": "LOLMU", "experiment": "active compound combinations, pre-emergence greenhouse test (Colby synergy)", "assay_type": "in vivo, Lolium multiflorum", "excerpt": "as §1, §2, §3, §4, §5, §6, §7, §8"}, "[4]": {"test_system": "SETFA", "experiment": "greenhouse test, post-emergence treatment", "assay_type": "in vivo, Setaria faberi", "conditions": "application rate 1.0 kg/ha, scale 0 to 100", "excerpt": "as §1\n(§9) For the post-emergence treatment, the test plants were first grown to a height of 3 to 15 cm, depending on the plant habit, and then treated with the active compounds which had been suspended or emulsified in water. For this purpose, the test plants were either sown directly and grown in the same containers, or they were first grown separately as seedlings and transplanted into the test containers a few days prior to treatment.\n(§10) Depending on the species, the plants were kept at 10-25° C. or 20-35° C. The test period extended over 2 to 4 weeks. During this time, the plants were tended, and their response to the individual treatments was evaluated.\n(§11) Evaluation was carried out using a scale from 0 to 100. 100 means no emergence of the plants, or complete destruction of at least the aerial moieties, and 0 means no damage, or normal course of growth. A good herbicidal activity is given at values of at least 70 and a very good herbicidal activity is given at values of at least 85.\n(§12) The plants used in the greenhouse experiments belonged to the following species: […]"}, "[5]": {"test_system": "CHEAL", "experiment": "greenhouse test, post-emergence treatment", "assay_type": "in vivo, Chenopodium album", "conditions": "application rate 0.5 kg/ha, scale 0 to 100", "excerpt": "as §1, §9, §10, §11, §12"}, "[6]": {"test_system": "ECHCG", "experiment": "greenhouse test, post-emergence treatment", "assay_type": "in vivo, Echinochloa crus-galli", "conditions": "application rate 1.0 kg/ha, scale 0 to 100", "excerpt": "as §1, §9, §10, §11, §12"}, "[7]": {"test_system": "SETIT", "experiment": "greenhouse test, post-emergence treatment", "assay_type": "in vivo, Setaria italica", "conditions": "application rate 1.0 kg/ha, scale 0 to 100", "excerpt": "as §1, §9, §10, §11, §12"}, "[8]": {"conditions": "use example 14, application rate a.s. 31.25 g/ha"}, "[9]": {"conditions": "use example 14, application rate a.s. 125 g/ha"}, "[10]": {"conditions": "use example 14, application rate a.s. 250 g/ha"}, "[11]": {"conditions": "use example 14, application rate a.s. 62.5 g/ha"}, "[12]": {"conditions": "use example 14, application rate a.s. 3.12 g/ha"}, "[13]": {"conditions": "use example 14, application rate a.s. 25 g/ha"}, "[14]": {"conditions": "use example 14, application rate a.s. 12.5 g/ha"}}, "data": [{"smiles": "CCOc1ncccc1CC1C(=O)N(COC)C(C)(Cc2ccccc2)C(=O)N1C", "note": "(stereo not drawn) [II-26]", "values": [{"measurement": "Herbicidal activity in % after 20 days against SETFA", "setting": "[1]; [8]", "result": 10, "unit": "%"}, {"measurement": "Herbicidal activity in % after 20 days against SETFA", "setting": "[1]; [9]", "result": 75, "unit": "%"}, {"measurement": "Herbicidal activity in % after 20 days against SETFA", "setting": "[1]; [10]", "result": 100, "unit": "%"}, {"measurement": "Herbicidal activity in % after 20 days against ALOMY", "setting": "[2]; [8]", "result": 30, "unit": "%"}, {"measurement": "Herbicidal activity in % after 20 days against ALOMY", "setting": "[2]; [11]", "result": 60, "unit": "%"}, {"measurement": "Herbicidal activity in % after 20 days against ALOMY", "setting": "[2]; [9]", "result": 90, "unit": "%"}, {"measurement": "Herbicidal activity in % after 20 days against ALOMY", "setting": "[2]; [10]", "result": 95, "unit": "%"}, {"measurement": "Herbicidal activity in % after 20 days against LOLMU", "setting": "[3]; [8]", "result": 0, "unit": "%"}, {"measurement": "Herbicidal activity in % after 20 days against LOLMU", "setting": "[3]; [11]", "result": 15, "unit": "%"}, {"measurement": "Herbicidal activity in % after 20 days against LOLMU", "setting": "[3]; [9]", "result": 98, "unit": "%"}]}, {"smiles": "CN1C(=O)C(C)(Cc2ccccc2)N(CC2CC2)C(=O)C1=Cc1ccccc1C#N", "note": "(stereo not drawn) [I-25]", "values": [{"measurement": "herbicidal activity against SETFA", "setting": "[4]", "result": "very good (a very good herbicidal activity is given at values of at least 85)"}]}, {"smiles": "CCCCCN1C(=O)C(=Cc2ccccc2C#N)N(C)C(=O)C1(C)Cc1ccccc1", "note": "(stereo not drawn) [I-21]", "values": [{"measurement": "herbicidal activity against CHEAL", "setting": "[5]", "result": "very good (a very good herbicidal activity is given at values of at least 85)"}]}, {"smiles": "CCNc1nc(Cl)nc(NC(C)C)n1", "note": "[atrazine]", "values": [{"measurement": "Herbicidal activity in % after 20 days against ALOMY", "setting": "[2]; application rate a.s. 125 g/ha", "result": 35, "unit": "%"}, {"measurement": "Herbicidal activity in % after 20 days against ALOMY", "setting": "[2]; application rate a.s. 250 g/ha", "result": 65, "unit": "%"}, {"measurement": "Herbicidal activity in % after 20 days against LOLMU", "setting": "[3]; application rate a.s. 125 g/ha", "result": 0, "unit": "%"}, {"measurement": "Herbicidal activity in % after 20 days against LOLMU", "setting": "[3]; application rate a.s. 250 g/ha", "result": 20, "unit": "%"}]}, {"smiles": "Cn1nc(C(F)(F)F)c(CS(=O)(=O)C2=NOC(C)(C)C2)c1OC(F)F", "note": "[pyroxasulfone]", "values": [{"measurement": "Herbicidal activity in % after 20 days against SETFA", "setting": "[1]; [12]", "result": 0, "unit": "%"}, {"measurement": "Herbicidal activity in % after 20 days against SETFA", "setting": "[1]; use example 14, application rate a.s. 6.25 g/ha", "result": 25, "unit": "%"}, {"measurement": "Herbicidal activity in % after 20 days against SETFA", "setting": "[1]; [13]", "result": 95, "unit": "%"}, {"measurement": "Herbicidal activity in % after 20 days against ALOMY", "setting": "[2]; [12]", "result": 25, "unit": "%"}, {"measurement": "Herbicidal activity in % after 20 days against ALOMY", "setting": "[2]; [14]", "result": 95, "unit": "%"}, {"measurement": "Herbicidal activity in % after 20 days against ALOMY", "setting": "[2]; [13]", "result": 95, "unit": "%"}, {"measurement": "Herbicidal activity in % after 20 days against LOLMU", "setting": "[3]; [12]", "result": 15, "unit": "%"}, {"measurement": "Herbicidal activity in % after 20 days against LOLMU", "setting": "[3]; [14]", "result": 75, "unit": "%"}, {"measurement": "Herbicidal activity in % after 20 days against LOLMU", "setting": "[3]; [13]", "result": 80, "unit": "%"}]}, {"smiles": "C=CCCN1C(=O)C(=Cc2ccccc2C#N)N(C)C(=O)C1(C)Cc1ccccc1", "note": "(stereo not drawn) [I-19]", "values": [{"measurement": "herbicidal activity against ECHCG", "setting": "[6]", "result": "very good (a very good herbicidal activity is given at values of at least 85)"}, {"measurement": "herbicidal activity against SETIT", "setting": "[7]", "result": "very good (a very good herbicidal activity is given at values of at least 85)"}]}]}
